Test results as given in patent publication US9090944B2, “Biomarker DACT1 for gastric cancer” (The Chinese University of Hong Kong, priority 2011, dated 2015).

Assays:
KatoIII = experiment: Demethylation treatment with 5-Aza, DACT1 expression by semiquantitative RT-PCR; type: cell-based, human; settings: 2 μM 5-Aza for 5 days
Experimental: (§1) Semiquantitative RT-PCR was performed in a total volume of 25 μL reaction containing GeneAmp 1×PCR Buffer II (Applied Biosystems), 2.5 mM MgCl2, 200 μM each of dNTP, 200 nM each of primers, 0.5 U of AmpliTaq Gold DNA polymerase (Applied Biosystems) and 30˜50 ng cDNA. The PCR program started with an initial denaturation at 95° C. for 10 min, followed by 32-35 cycles (94° C. for 30 sec, annealing temperature for 30 sec, and 72° C. for 30 sec) of amplification, with a final extension at 72° C. for 10 min. The PCR bands were visualized under ultraviolet light and photographed. The expression of the target gene was normalized by the expression of house keeping gene β-actin, which served as an internal control. Cells were seeded at a density of […]/100-mm dishes and grew for 24 hr. Cells were then treated with 2 μM 5-aza-2′-deoxycytidine (“5-Aza”) (Sigma-Aldrich) for 5 days. The 5-Aza was replenished every day. The gene expression of DACT1 was evaluated using semiquantitative RT-PCR.

AGS = experiment: as above; type: cell-based, human; settings: 2 μM 5-Aza for 5 days
Experimental: as §1

Nc1ncn([C@H]2C[C@H](O)[C@@H](CO)O2)c(=O)n1 [5-Aza, 5-aza-2′-deoxycytidine]
DACT1 expression after demethylation treatment (KatoIII): restored DACT1 expression
DACT1 expression after demethylation treatment (AGS): restored DACT1 expression
